Experiment [1] deals with Leishmania donovani promastigotes expressing firefly luciferase. In words: antileishmanial luciferase assay on transgenic promastigotes. The settings on record: read-out: Antileishmanial activity IC50. The class given is cell-based. The procedure:
Antileishmanial activity of the compounds was tested on a transgenic cell line of Leishmania donovani promastigotes expressing firefly luciferase.^29a In a 96 well microplate assay, compounds with appropriate dilution were added to the leishmania promastigotes culture (2×10^6 cell/mL). The plates were incubated at 26° C. for 72 hours and growth of leishmania promastigotes was determined by luciferase assay with Steady Glo® reagent (Promega, USA). Pentamidine and Amphotericin B were used as standard antileishmanial agents. The analogues were simultaneously tested for cytotoxicity on VERO cells (monkey kidney fibroblast) by Neutral Red assay.^29b IC50 values for the compounds were computed from the growth inhibition curve.

The subject of experiment [2] is P. falciparum W2 (IndoChina). Put plainly: antimalarial parasite LDH (pLDH) assay, W2. The settings on record: for IC50: pLDH assay, Table 5, read-out: P. falciparum (W2 Clone) IC50; for P. falciparum (IC50) W2: LDH assay, Table 6; for S. I. (W2): Selectivity Index = IC50 (Vero cells)/IC50 (P. falciparum). The class given is cell-based, Plasmodium falciparum. How it is done:
(§1) The Thad Cochran National Center for Natural Products Research (University of Mississippi) in vitro antimalarial screen was conducted using an enzyme assay for detection of P. falciparum (see procedure below). This assay is based on the observation that lactate dehydrogenase (LDH) of P. falciparum is distinguishable from host LDH activity. P. falciparum LDH rapidly uses 3-acetyl pyridine nicotinamide adenine dinucleotide (APAD) as a coenzyme in the biotransformation of […].^38 The same process is carried out in human red blood cells at a very slow rate.
(§2) The “Antimalarial parasite LDH assay” is currently being conducted according the following procedure: prepare a suspension of RBC with a 2% parasitemia and 2% hematocrit in malaria complete medium. Dispense 200 μl aliquots of this suspension into each well of a 96 well microtiter plate. Add 10 μl volumes of the drugs to be tested in duplicate to the appropriate wells. Place the plates into humidified chamber and flush the cultures with a gas mixture consisting of 90% N2, 5% O2, and 5% CO2. Transfer the chamber containing the plates to an incubator, and incubate for 48 hours at 37° C. After 48 hours add 100 μl aliquots of the Malstat™ reagent to each well of a new 96-well microtiter plate Resuspend the cultures from the assay plate by mixing each well up and down several times. Remove 20 μl from each well of the resuspend culture and add to the plate containing the Malstat™ reagent. Incubate the plates at room temperature for 30 minutes. After 30 minutes, add to each well 20 μl of the 1:1 mixture of the NBT/PES solution (2 mg/ml and 0.1 mg/ml, respectively). Incubate the plates in the dark for 1 hour. Add 100 μl of 5% acetic acid solution to stop the reaction. The plate is then read at an endpoint of approximately 650 nm. The dose response curves are generated using Microsoft Excel.
(§3) Antimalarial activity of the analogues was determined in vitro on chloroquine sensitive (D)6, Sierra Leone) and resistant (W2, IndoChina) strains of Plasmodium falciparum. The 96 well microplate assay is based on evaluation of the effect of the compounds on the growth of asynchronous cultures of P. falciparum, determined by the assay of parasite lactate dehydrogenase (pLDH) activity.^28 The appropriate dilutions of the compounds were prepared in DMSO or RPMI-1640 medium and added to the cultures of P. falciparum (2% hematocrit, 2% parasitemia) set up in clear flat bottomed 96 well plates. The plates were placed into the humidified chamber and flushed with a gas mixture of 90% N2, 5% CO2 & 5% O2. The cultures were incubated at 37° C. for 48 hours. Growth of the parasite in each well was determined by pLDH assay using Malstat® reagent. The medium and RBC controls were also set-up in each plate.

Experiment [3] deals with P. falciparum D6 (Sierra Leone). Put plainly: antimalarial parasite LDH (pLDH) assay, D6. In kind it is cell-based, Plasmodium falciparum. The settings on record: for IC50: pLDH assay, Table 5, read-out: P. falciparum (D6 Clone) IC50; for P. falciparum (IC50) D6: LDH assay, Table 6; for S. I. (D6): Selectivity Index = IC50 (Vero cells)/IC50 (P. falciparum). The procedure:
as §1, §2
as §3, with “plate. The standard antimalarial agents, chloroquine and artemisinin, were used as the positive controls while DMSO was tested as the negative control.” for “plate.”

A further experiment has as its system P. berghei N. In words: in vivo Peter's 4-day antimalarial test in mice, P. berghei N. The following applies: for P. berghei N P.O. ED50 / P. berghei N P.O. ED90 / P. berghei N S.C. ED50 / P. berghei N S.C. ED90: mice, 4-day test, unit not given; for P. berghei N P.O. ED50 / P. berghei N P.O. ED90: oral; for P. berghei N S.C. ED50 / P. berghei N S.C. ED90: subcutaneous. More on the design: P. berghei N P.O. ED50 / P. berghei N P.O. ED90: unit not given beside the values. The procedure:
(§4) The parasitemia is determined on the day following the last treatment—day 4 to determine qualitatively the presence and degree of activity at the screening dose.

For experiment [4], the system named is P. falciparum Sierra Leone D6 clone. Put plainly: WHO/TDR in vitro antimalarial screen (uptake of radiolabeled nucleic acid precursor), D6 clone. The settings on record: mefloquine-resistant, chloroquine-sensitive, second value in brackets not explained. The class given is cell-based, Plasmodium falciparum. The procedure: (§5) All test compounds are solubilized in DMSO and diluted 400 fold (to rule out a DMSO effect) in culture medium with plasma for a starting concentration of at least 12,500 ng/mL. Drugs are subsequently diluted five fold using the Cetus Pro/Pette system utilizing a range of concentrations from 0.8 ng/mL to 12,500 ng/mL. Fifty percent inhibitory concentrations are reported in ng/mL.
(§6) The D6 African P. falciparum clone is sensitive to chloroquine, pyrimethamine and sulfadoxine but resistant to mefloquine. The W2 Indochina P. falciparum clone is resistant to chloroquine, pyrimethamine and sulfadoxine but sensitive to mefloquine. The K1 P. falciparum is a resistant strain, where NF54 P. falciparum is a sensitive strain.

In experiment [5] the test system is P. falciparum Indochina W2 clone. Put plainly: WHO/TDR in vitro antimalarial screen, W2 clone. In kind it is cell-based, Plasmodium falciparum. The following applies: chloroquine-resistant, mefloquine-sensitive, second value in brackets not explained. The procedure: as §5, §6
In a further experiment the test system is P. yoelli ssp. NS. Put plainly: in vivo 4-day antimalarial test in mice, P. yoelli ssp. NS. The settings on record: for P. yoelli ssp. NS (S.C.) ED50 / P. yoelli ssp. NS (S.C.) ED90: subcutaneous, unit inferred. The procedure:
as §4

The next experiment has as its system P. falciparum NF54. Put plainly: WHO/TDR in vitro antimalarial screen, NF54. The class given is cell-based, Plasmodium falciparum. The settings on record: NF54, chloroquine-sensitive; second value in brackets not explained. How it is done: (§7) […]. All test compounds are solubilized in DMSO and diluted 400 fold (to rule out a DMSO effect) in culture medium with plasma for a starting concentration of at least 12,500 ng/mL. Drugs are subsequently diluted five fold using the Cetus Pro/Pette system utilizing a range of concentrations from 0.8 ng/mL to 12,500 ng/mL. Fifty percent inhibitory concentrations are reported in ng/mL.
as §6

The next experiment relates to P. falciparum K1. Put plainly: WHO/TDR in vitro antimalarial screen, K1. The class given is cell-based, Plasmodium falciparum. The following applies: K1, chloroquine-resistant. How it is done: as §7, §6
Where [6] appears, read: Table 1 (artemisinin analogues), NA = not active up to 125 μg/ml.

The IC50 is the concentration needed to halve the response being measured.

Where two headings read alike, the source gives them in different places.

As for `CC1CCC2C(CCCc3ccc(O)cc3)C(=O)OC3OC4(C)CCC1C32OO4` (single isomer, unassigned; (+)) [Compound 33], the half-inhibitory concentration (IC50) was found to be 44700 nM in experiment [1] (setting [6]), 4.7 nM in experiment [2] and 7.9 nM in [3].

Turning to `C[C@@H]1CC[C@H]2[C@@H](C)C(=O)O[C@@H]3O[C@@]4(C)CC[C@@H]1[C@]32OO4` [Artemisinin, artemisinin], the IC50 in experiment [1] (setting [6]) was 124000 nM; in experiment [3] it was 17 nM.

Turning to `CC1CCC2C(CCCc3ccc(Cl)cc3)COC3OC4(C)CCC1C32OO4` (centres unmarked) [Compound 11], in the experiment with P. berghei N, the “P. berghei N P.O. ED50” value came out at 1.0, the “P. berghei N P.O. ED90” value amounted to 2.1, the “P. berghei N S.C. ED50” value came out at 0.7 and the “P. berghei N S.C. ED90” value turned out to be 1.2. The “P. falciparum (IC50) D6” value in [4] was 1.9 (1.9) ng/mL. In addition, the “P. falciparum (IC50) W2” value in [5] was 3.0 (2.2) ng/mL. Further, in the experiment on P. yoelli ssp. NS, the P. yoelli ssp. NS (S.C.) ED50 stood at 0.6 mg/kg and the P. yoelli ssp. NS (S.C.) ED90 is 1 mg/kg.

Consider `CC1CCC2C(CCCc3ccccc3)C(=O)OC3OC4(C)CCC1C32OO4` (centres unmarked) [Compound 26], for which the IC50 in [1] (setting [6]) was determined as 11600 nM; in experiment [2], 1.3 nM; in [3], 4.7 nM.

Regarding `CC1CCC2C(CCCc3ccccc3)C(=O)OC3OC4(C)CCC1C32OO4` (centres unmarked) [Compound 27], the IC50 in [1] (setting [6]) turned out to be 45300 nM; in [2] it was 3.4 nM; in [3] it was 10.4 nM.

`CC1CCC2C(CCCc3ccc(N(C)C)cc3)COC3OC4(C)CCC1C32OO4` (centres unmarked) [Compound 43a]: the half-maximal inhibitory concentration (IC50) was 36000 nM in experiment [1] (Table 3 (continues Table 1)), 14.3 nM in [2] and 16.5 nM in experiment [3].

In the case of `CC1CCC2C(CCC#N)C(=O)OC3OC4(C)CCC1C32OO4` (centres unmarked) [Compound 52], the half-maximal inhibitory concentration (IC50) is 38900 nM in experiment [1] (setting [6]), 14.9 nM in experiment [2] and 14.9 nM in experiment [3].

Consider `C[C@H]1[C@H](OC(=O)CCC(=O)[O-])O[C@@H]2O[C@@]3(C)CC[C@H]4[C@H](C)CC[C@@H]1[C@@]24OO3.[Na+]` [Sodium artesunate, sodium artesunate, reference compound], for which, in the experiment with P. berghei N, the “P. berghei N P.O. ED50” value was 2.4, the “P. berghei N P.O. ED90” value came to 13.0, the “P. berghei N S.C. ED50” value stood at 1.5 and the “P. berghei N S.C. ED90” value was 6.3. Further, in the experiment with P. berghei N (strain N, route PO), the “% Suppression” value worked out at 77.2%, the ED50 is on record as under 10 mg/kg × 4 and the ED90 was over 10 mg/kg × 4. In the experiment with P. yoelli ssp. NS (strain NS, route PO), the “% Suppression” value was determined as 56.5%, the ED50 was under 10 mg/kg × 4 and the ED90 is on record as over 10 mg/kg × 4. Moreover, in the experiment on P. yoelli ssp. NS, the P. yoelli ssp. NS (S.C.) ED50 was 5.3 mg/kg and the P. yoelli ssp. NS (S.C.) ED90 amounted to 23.3 mg/kg.

“(+)-Octabydro-3,6α-dimethyl-3,12-epoxy-9β-(3′-(m-fluorophenyl)propyl)-12H-pyrano[4,3j]-1,2-benzodioxepin-10(3H)-one [Compound 30]”: the IC50 in experiment [1] (setting [6]) came to 53800 nM; in experiment [2] it was 20 nM; in experiment [3] it was 30.1 nM.

With “(+)-Octahydro3,6α-dimethyl-3,12-epoxy-9β-(3′-(3,5-difluorophenyl)propyl)-12H-pyrano[4,3j)-1,2-benzodioxepin-10(3H)-one [Compound 34]”, the values for the IC50 in [1] (setting [6]), in [2] and in experiment [3] were 14400 nM, 16 nM and 18.8 nM, respectively.

For the compound “(+)-Octahydro3,6α-dimethyl-3,12-epoxy-9β-(3′-(3,5-difluorophenyl)propyl)-12H-pyrano[4,3j]-1,2-benzodioxepin [Compound 41]”, in the experiment on P. berghei N, the “P. berghei N P.O. ED50” value is under 10, the “P. berghei N P.O. ED90” value is recorded as under 10, the “P. berghei N S.C. ED50” value is reported as under 10 and the “P. berghei N S.C. ED90” value was under 10. Also, in experiment [2], the “P. falciparum (IC50) W2” value is 2.3 ng/mL and the “S. I. (W2)” value is reported as over 207. For the same compound, in experiment [3], the “P. falciparum (IC50) D6” value was found to be 3.8 ng/mL and the “S. I. (D6)” value is over 125. In addition, the “P. falciparum (IC50) W2” value in experiment [5] came out at 6.70 ng/mL.

Take “(+)-Octahydro-3,6α-dimethyl-3,12-epoxy-9β-(3′-(3,5-bistrifluoromethylphenyl)propyl)-12H-pyrano[4,3j]-1,2-benzodioxepin [Compound 40]”: in the experiment with P. berghei N, the “P. berghei N P.O. ED50” value is reported as under 10, the “P. berghei N P.O. ED90” value was under 10, the “P. berghei N S.C. ED50” value is under 10 and the “P. berghei N S.C. ED90” value is under 10. In [2], the “P. falciparum (IC50) W2” value was found to be 9.5 ng/mL and the “S. I. (W2)” value is given as over 50. Moreover, in [3], the “P. falciparum (IC50) D6” value is recorded as 12 ng/mL and the “S. I. (D6)” value is listed as over 40. In addition, the “P. falciparum (IC50) W2” value in [5] is given as 7.11 ng/mL.

As for “(+)-Octahydro-3,6α-dimethyl-3,12-epoxy-9β-(3′-(trifluoromethyl)propyl)-12H-pyrano[4,3j]-1,2-benzodioxepin-10(3H)-one [Compound 28]”, the half-inhibitory concentration (IC50) in [1] (setting [6]) is 1400 nM; in experiment [2], 50.8 nM; in [3], 43.9 nM.

With quinine [reference compound], the “P. falciparum (IC50) NF54” value with P. falciparum NF54 is 9.08 ng/mL. In the experiment with P. berghei N, the “P. berghei N P.O. ED50” value came out at 71, the “P. berghei N P.O. ED90” value amounted to 118, the “P. berghei N S.C. ED50” value turned out to be 25 and the “P. berghei N S.C. ED90” value came to 190. The “P. falciparum (IC50) K1” value with P. falciparum K1 was 99.60 ng/mL. Further, the P. yoelli ssp. NS (S.C.) ED50 in the experiment with P. yoelli ssp. NS worked out at 128 mg/kg.

(Values after patent US20050240034A1, “Artemisinin-based peroxide compounds as broad spectrum anti-infective agents” (priority 2002, published 2005).)
